According to patent publication US10167262B2, “Herbicidal substituted 3-arylpyrazoles” (FMC CORPORATION, priority 2014, dated 2019):

How the values were obtained:
Assay type in all cases: in vivo
[1] = system: waterhemp (common waterhemp, Amaranthus rudis); test: Test C pre-/postemergence greenhouse test, plant response rating 0-100
Summary of the method: (§1)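 Pre-emergence soil and post-emergence foliar sprays were applied simultaneously to seeded loam–sand pots and to 1–4-leaf plants in peat medium; greenhouse holding lasted 13–15 days, then plants were scored visually from 0 (no effect) to 100 (complete control).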

[2] = system: oilseed rape (Brassica napus); test: as above
Summary of the method: as §1

[3] = system: barnyardgrass (Echinochloa crus-galli); test: as above
Summary of the method: as §1

[4] = system: waterhemp_RES2, (ALS & HPPD resistant common waterhemp, Amaranthus rudis); test: Test E postemergence greenhouse test, plant response rating 0-100; conditions: scale 0 to 100
Experimental: At the same time, plants from these crop and weed species and also waterhemp_RES1, (ALS & Triazine resistant common waterhemp, Amaranthus rudis), and waterhemp_RES2, (ALS & HPPD resistant common waterhemp, Amaranthus rudis) were planted in pots containing Redi-Earth® planting medium (Scotts Company, 14111 Scottslawn Road, Marysville, Ohio 43041) comprising spaghnum peat moss, vermiculite, wetting agent and starter nutrients were treated with postemergence applications of test chemicals formulated in the same manner. Plants ranged in height from 2 to 18 cm for postemergence treatments (1- to 4-leaf stage).
Treated plants and controls were maintained in a greenhouse for 14 to 21 days, after which time all species were compared to controls and visually evaluated. Plant response ratings, summarized in Table E, are based on a scale of 0 to 100 where 0 is no effect and 100 is complete control. A dash (-) response means no test result.

[5] = Postemergence, 250 g ai/ha, scale 0 to 100
[6] = Postemergence, 500 g ai/ha, scale 0 to 100
[7] = Postemergence, 125 g ai/ha, scale 0 to 100

Structure (SMILES) | Plant response rating (0 to 100), Waterhemp ([1]; Postemergence, 62 g ai/ha) | Plant response rating (0 to 100), Waterhemp ([1]; Postemergence, 125 g ai/ha) | Plant response rating, Waterhemp [1, 5] | Plant response rating, Waterhemp [1, 6] | Plant response rating, Waterhemp ([1]; Preemergence, 62 g ai/ha) | Plant response rating, Waterhemp ([1]; Preemergence, 125 g ai/ha) | Plant response rating, Waterhemp ([1]; Preemergence, 250 g ai/ha) | Plant response rating (0 to 100), Oilseed Rape ([2]; Postemergence, 62 g ai/ha) | Plant response rating (0 to 100), Oilseed Rape ([2]; Postemergence, 125 g ai/ha) | Plant response rating, Oilseed Rape [2, 5] | Plant response rating, Oilseed Rape [2, 6] | Plant response rating, Oilseed Rape ([2]; Preemergence, 62 g ai/ha) | Plant response rating, Oilseed Rape ([2]; Preemergence, 125 g ai/ha) | Plant response rating, Oilseed Rape ([2]; Preemergence, 250 g ai/ha) | Plant response rating (0 to 100), Barnyardgrass ([3]; Postemergence, 62 g ai/ha) | Plant response rating, Barnyardgrass [3, 7] | Plant response rating, Barnyardgrass [3, 5] | Plant response rating, Barnyardgrass ([3]; Preemergence, 62 g ai/ha) | Plant response rating, Barnyardgrass ([3]; Preemergence, 125 g ai/ha) | Plant response rating, Barnyardgrass ([3]; Preemergence, 250 g ai/ha) | further results
O=Cn1cc(C(=O)c2ccccc2)c(-c2cc(Cl)cc(Cl)c2)n1 [Compound 28] | 95 | 98 | 98 | 100 | 100 | 100 | 100 | 80 | 85 | 85 | 95 | 5 | 30 | 98 | 0 | 0 | 0 | 0 | 0 | 0 | Plant response rating, Waterhemp ([1]; Preemergence, 500 g ai/ha): 100; Plant response rating, Oilseed Rape ([2]; Preemergence, 500 g ai/ha): 100; Plant response rating, Barnyardgrass [3, 6]: 0; Plant response rating, Barnyardgrass ([3]; Preemergence, 500 g ai/ha): 0; Plant response rating, Waterhemp_RES2 ([4]; 31 g ai/ha): 50; Plant response rating, Waterhemp_RES2 ([4]; 62 g ai/ha): 60; Plant response rating, Waterhemp_RES2 ([4]; 125 g ai/ha): 80; Plant response rating, Waterhemp_RES2 ([4]; 250 g ai/ha): 85; Plant response rating, Waterhemp_RES2 ([4]; 500 g ai/ha): 90
CCOC(OCC)(c1ccccc1)c1c[nH]nc1-c1cc(Cl)cc(Cl)c1 [Compound 14, 3-(3,5-dichlorophenyl)-4-(diethoxyphenylmethyl)-1H-pyrazole] | 100 | 95 | 100 | 100 | 100 | 100 | 100 | 80 | 70 | 95 | 90 | 50 | 90 | 85 | 0 | 0 | 0 | 0 | 0 | 0 | Plant response rating, Waterhemp ([1]; Preemergence, 500 g ai/ha): 100; Plant response rating, Oilseed Rape ([2]; Preemergence, 500 g ai/ha): 85; Plant response rating, Barnyardgrass [3, 6]: 0; Plant response rating, Barnyardgrass ([3]; Preemergence, 500 g ai/ha): 0; Plant response rating, Waterhemp_RES2 ([4]; 31 g ai/ha): 75; Plant response rating, Waterhemp_RES2 ([4]; 62 g ai/ha): 85; Plant response rating, Waterhemp_RES2 ([4]; 125 g ai/ha): 90; Plant response rating, Waterhemp_RES2 ([4]; 250 g ai/ha): 95; Plant response rating, Waterhemp_RES2 ([4]; 500 g ai/ha): 95
COC(OC)(c1ccccc1)c1c[nH]nc1-c1cc(Cl)cc(Cl)c1 [Compound 13, 3-(3,5-dichlorophenyl)-4-(dimethoxyphenylmethyl)-1H-pyrazole] | 100 | 100 | 100 | 100 | 100 | 100 | 100 | 40 | 55 | 50 | 70 | 50 | 20 | 30 | 0 | 0 | 0 | 0 | 0 | 0 | Plant response rating, Waterhemp ([1]; Preemergence, 500 g ai/ha): 100; Plant response rating, Oilseed Rape ([2]; Preemergence, 500 g ai/ha): 98; Plant response rating, Barnyardgrass [3, 6]: 0; Plant response rating, Barnyardgrass ([3]; Preemergence, 500 g ai/ha): 0; Plant response rating, Waterhemp_RES2 ([4]; 125 g ai/ha): 75; Plant response rating, Waterhemp_RES2 ([4]; 500 g ai/ha): 95
O=C(c1ccccc1)c1cn(CO)nc1-c1cc(Cl)cc(Cl)c1 [Compound 15, [3-(3,5-dichlorophenyl)-1-(hydroxymethyl)-1H-pyrazol-4-yl]phenylmethanone] | 65 | 95 | 100 | 100 | 100 | 100 | 100 | 60 | 90 | 90 | 90 | 50 | 50 | 80 | 0 | 0 | 0 | 0 | 0 | 0 | Plant response rating, Oilseed Rape ([2]; Preemergence, 31 g ai/ha): 0; Plant response rating, Barnyardgrass [3, 6]: 0; Plant response rating, Barnyardgrass ([3]; Preemergence, 31 g ai/ha): 0; Plant response rating, Waterhemp_RES2 ([4]; 31 g ai/ha): 60; Plant response rating, Waterhemp_RES2 ([4]; 62 g ai/ha): 70; Plant response rating, Waterhemp_RES2 ([4]; 125 g ai/ha): 75; Plant response rating, Waterhemp_RES2 ([4]; 250 g ai/ha): 90; Plant response rating, Waterhemp_RES2 ([4]; 500 g ai/ha): 98
O=C(c1cncc(F)c1)c1c[nH]nc1-c1cc(Cl)cc(Cl)c1 [Compound 19] | 65 | 80 | 95 | – | 100 | 100 | 100 | 0 | 0 | 5 | – | 0 | 80 | 80 | 0 | 0 | 0 | 0 | 0 | 0 | Plant response rating, Oilseed Rape ([2]; Preemergence, 31 g ai/ha): 0; Plant response rating (0 to 100), Barnyardgrass ([3]; Postemergence, 31 g ai/ha): 0; Plant response rating, Barnyardgrass ([3]; Preemergence, 31 g ai/ha): 0
CCOC(OCC)(c1cccs1)c1c[nH]nc1-c1cc(Cl)cc(Cl)c1 [Compound 27] | 95 | 98 | 98 | 100 | 100 | 100 | 100 | 45 | 50 | 50 | 45 | 70 | 90 | 85 | 0 | 0 | 0 | 0 | 0 | 0 | Plant response rating, Waterhemp ([1]; Preemergence, 500 g ai/ha): 100; Plant response rating, Oilseed Rape ([2]; Preemergence, 500 g ai/ha): 90; Plant response rating, Barnyardgrass [3, 6]: 10; Plant response rating, Barnyardgrass ([3]; Preemergence, 500 g ai/ha): 0
